Measured values taken from US9072777B2, “Method for screening substance having proangiogenic effect” (priority 2005, dated 2015).
Ends that are not written are not given here.

Columns and labels:
[1] = system: VEGF; assay: expression of VEGF in femoral muscle of lower extremity ischemia model mouse, Western Blot; format: in vivo; settings: AM administration group vs control
Method: The lower extremity ischemia model mouse prepared as in Example 2 was sacrificed by cervical dislocation, then femoral muscle sampled, from which protein was extracted and Western Blot analysis was conducted.

[2] = system: lower extremity ischemia model mouse; assay: lower extremity ischemia model mouse (laser Doppler perfusion imaging, wound healing, new vessels); format: in vivo
Method: Mouse lower extremity ischemia model was prepared as follows.
C3H mice were anesthetized with nembutal and then skin of one side of lower extremity was cut open to expose artery of lower extremity. The lower extremity ischemia model was prepared by ligating artery of lower extremity at upper groin and lower popliteal region and resecting the artery of lower extremity at this region. The recovery of the blood flow after the resection of the artery of lower extremity by the development of the collateral circulation was observed.
C3H mice at the age of 6 months were divided into three groups; AM administration group, VEGF administration group, and control group. Mice of AM treatment group was continuously injected with AM (50 ng/h) by osmotic pump. Each mouse of VEGF administration group was injected with 20 μl of VEGF (5 ng/h) intramuscularly and used as positive control. Mice of control group were injected with PBS continuously.
The blood flow in the lower extremity ischemia model was monitored using laser Doppler perfusion imaging. The effect of AM on wound healing was also investigated. […] In FIG. 4, almost no blood flow in ischemic lower limb was observed on the first day of ischemic model preparation ([…] day 0).
The increasing of the number of new intramuscular blood vessel at the side of operation was also observed (FIG. 6, panel B). In contrast, in AM heterozygous knockout mice (AM +/−), and the mice administered with “AM 22-52”, a truncated form of AM consisting of from 22 to 52 amino acid sequence (AM antagonist), suppression of the recovery of blood flow and the angiogenesis were observed (FIG. 7). In FIG. 7, the mark “**” denotes p<0.01. Hereinafter the same.

[3] = system: cerebral edema model mice; assay: cerebral edema model (cold injury of dura mater); format: in vivo, mouse; settings: AM administration group vs control
Method: Mice were anesthetized with nembutal and then skull was opened. Injury was provided by contacting a cylinder cooled to −80° C. against dura mater. After 24 hours, mice were sacrificed, brain was removed and the increasing in the weight of the brain due to the cerebral edema was quantified. In the similar cerebral edema model, fluorescent-labeled dextran was injected into the tail vein and the leakage of the fluorescence dye out of the vessel in brain was quantified using fluorescent plate reader.

[4] = system: Flk-1 knockout mice; assay: rescue test using Flk-1 knockout mice (lower extremity ischemia model); format: in vivo, mouse
Method: On the other hand, supplementation of AM to Flk-1, a receptor of VEGF knockout mice was conducted as a rescue test opposite to that mentioned above. The recovery of blood flow in Flk-1 knockout mice decreased in comparison with wild-type.

[5] = system: angiogenesis enhancing factors and adhesion factor gene expression; assay: gene array of sample from lower extremity ischemia model mice; format: in vivo, mouse
Description: In this Example, the gene group of which expression level changes by the administration of AM were monitored by gene array using the sample form the lower extremity ischemia model mice

[6] = system: VEGF; assay: expression of VEGF in human artery endothelial cell (HAEC), RT-PCR; format: cell-based; settings: AM concentration and stimulation time dependence
Method: Also, the expression of VEGF in human artery endothelial cell (HAEC) was analyzed using RT-PCR.

[7] = system: eNOS; assay: phosphorylation of eNOS in HUVEC, Western Blot; format: cell-based, human; settings: AM 10^-11 to 10^-7 M in combination with VEGF 10 ng/ml
Method: (§1) Single administration of AM (10^−11 to 10^−7 M) alone, or administration of AM in combination with VEGF (10 ng/ml) to the cultivating system of human umbilical vein endothelial cell was carried out. Protein was extracted from cells and the phosphorylation of Akt and eNOS was investigated using Western Blot analysis.

[8] = system: HUVEC; assay: in vitro vascular permeability assay (FITC-dextran through HUVEC monolayer); format: cell-based, human
Method: In vitro vascular permeability assay is an assay in which the cells are cultured in the insert placed on the culture plate with semi-permeable membrane at the bottom to form monolayer, then the substance is added to the insert and the extent of permeability into the plate through the cell monolayer is measured. In particular, the extent of permeability is measured by addition of the substance for the vascular permeability test such as AM, followed by the addition of dextran labeled with FITC onto the cell monolayer, allowing it to permeate through the monolayer, and the fluorescence intensity in the plate well solution is measured. Thus, the suppression activity of AM on the vascular permeability may be investigated.
An insert made of semi-permeable membrane was placed on a cultivation plate, in which HUVEC was cultured so that the cells formed monolayer (EBM-2 medium, 5% CO2, 37° C., 24 hours). The extent of permeability was measured by addition of the substance for the vascular permeability test to the plate on which cell were cultured, followed by the addition of dextran labeled with FITC onto the cell monolayer, allowing it to permeate through the monolayer, and the fluorescence intensity in the plate well solution was measured.

[9] = system: Akt; assay: phosphorylation of Akt in HUVEC, Western Blot; format: cell-based, human; settings: AM 10^-11 to 10^-7 M in combination with VEGF 10 ng/ml
Method: as §1

[10] = system: lower extremity edema model mice; assay: lower extremity edema model mice by topical injection of carrageenan; format: in vivo, mouse; settings: continuous administration of AM; carrageenan to pad of foot
Method: Transient edema may be prepared by topical injection of carrageenan, a hyperosmotic substance to pad of foot of mouse. Magnitude of the edema thus formed was evaluated by measuring the thickness of feet pad from time to time.

[11] = system: AM heterozygous knockout mice (AM +/-); assay: rescue test using AM heterozygous knockout mice (lower extremity ischemia model); format: in vivo, mouse; settings: for formation of new blood vessel: AM +/- mice supplemented with AM or VEGF; for recovery of blood flow / angiogenesis effect: AM +/- mice supplemented with exogenous AM or VEGF
Method: Rescue test using AM knockout mouse may also be carried out. In the lower-extremity ischemia model prepared from the AM knockout mouse with decreased expression level of AM, angiogenesis potency decreases. When AM is administered exogenously to the AM knockout mouse, recovery of angiogenesis potency may be observed. This is referred to as “rescue test”.
In this example, The lower extremity ischemia model mice were prepared as in Example 2, and the recovery of blood flow of the AM heterozygous knockout mice (AM +/−) supplemented with exogenous AM or VEGF.

[12] = system: claudin 5; assay: claudin 5 gene expression in HUVEC cultured on Matrigel, real-time PCR; format: cell-based, human
Method: (1) Adrenomedullin was administered exogenously to HUVEC cultured on Matrigel. After stimulating for 24 hours, the cell was recovered and RNA was extracted. The expression of claudin 5 gene was investigated using real-time PCR technique.
(2) “AM 22-52”, a truncated form of AM consisting of from 22 to 52 amino acid sequence was administered to HUVEC cultured on Matrigel to investigate the gene expression level.

[13] = gene array, AM administration group vs control group
[14] = mice administered with AM 22-52

## Adrenomedullin [AM]
[1]
  expression level of VEGF: increased from the early stage after the ischemia operation (day 1)
[2]; AM 50 ng/h, vs control group
  wound, amputation and shortening of lower limb: Reduction of wound and decreasing in the number of amputation and shortening of lower limb
[2]; AM administration group
  percentage of the mice in which the lower limb is normal or with slight wound: more than 80%
[2]; AM administration group vs control group
  number of mice in which the lower limb was amputated or with severe wound: smaller than that in the control group
[2]; Day 7 and 12 after ischemia, AM 50 ng/h
  blood flow in ischemic lower limb: recovery of blood flow was observed
[2]; administration of AM
  number of new intramuscular blood vessel at the side of operation: increasing
  recovery of the blood flow, ratio ischemic side (L) / non-ischemic side (R) (L/R): significant recovery in the blood flow
[2]; laser Doppler perfusion imaging, AM 50 ng/h continuously by osmotic pump, C3H mice
  recovery of the blood flow of lower extremity: Improvement in the recovery of the blood flow
[3]
  vascular permeability in brain (leakage of fluorescent-labeled dextran): suppressed in comparison with control
[3]; 24 hours after injury
  weight of brain: decreased
[4]; exogenous AM to Flk-1 knockout mice
  recovery of blood flow: no recovery of blood flow
[4]; exogenous AM to wild-type mice
  recovery of blood flow: enhance the recovery of blood flow
[5]; administration of AM in comparison with control group
  expression levels of eNOS, Osteopontin, VEGF, VCAM-1 and the like: increased
[5]; [13]
  COL18A1 expression, AM(+)/Control: 2.72
  Osteopontin expression, AM(+)/Control: 1.93
  PAI-1 expression, AM(+)/Control: 1.79
  PDGF-A expression, AM(+)/Control: 5.60
  PDGFRβ expression, AM(+)/Control: 1.58
  TGFβ expression, AM(+)/Control: 4.04
  Tie-2 expression, AM(+)/Control: 3.61
  VCAM-1 expression, AM(+)/Control: 3.65
  VEGF expression, AM(+)/Control: 1.50
  eNOS expression, AM(+)/Control: 1.71
  β-glycan expression, AM(+)/Control: 6.76
[6]
  expression level of VEGF: increased concentration- and time dependently
[7]
  phosphorylation of eNOS by VEGF: enhanced
[8]; AM in addition to VEGF
  vascular permeability (FITC-dextran through cell monolayer): suppressed the enhancement of vascular permeability by VEGF
[8]; substance alone
  vascular permeability (FITC-dextran through cell monolayer): suppression of vascular permeability
[9]
  phosphorylation of Akt by VEGF: enhanced
[10]
  formation of edema at lower limb (thickness of feet pad): suppressed
[11]
  formation of new blood vessel: recovered to the level comparable to the wild-type
  recovery of blood flow / angiogenesis effect: recovery of the angiogenesis effect
[12]
  expression of claudin 5: enhanced

## AM 22-52: a truncated form of AM consisting of from 22 to 52 amino acid sequence (AM antagonist) (TVQKLAHQIYQFTDKDKDNVAPRSKISPQGY; ends and bridges not checked; UniProt P35318 116-146, looked up, fragment) [reference compound]
[2]; [14]
  angiogenesis: suppression
  recovery of blood flow: suppression
[12]
  expression of claudin 5: decreased

## vascular endothelial growth factor [VEGF]
[8]; substance alone
  vascular permeability (FITC-dextran through cell monolayer): enhanced vascular permeability
[11]
  formation of new blood vessel: recovered to the level comparable to the wild-type
  recovery of blood flow / angiogenesis effect: recovery of the angiogenesis effect
